Test systems include 786-0; A498; COLO 205; HCT-116; HCT-15; HL-60; HT-29; IGROV-1; KM12; NCI-H460; NCI-H522; SF-268; SF-295; SK-MEL-2; SK-OV-3; SN12C; CCRF-CEM; LOX IMVI; UACC-62.
Assay in all cases: DTP human tumour cell line panel, 48 h

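96-well plates; 48 h exposure; 5 concentrations. Endpoints by linear interpolation between flanking doses. Not reached: highest tested concentration assigned. GI50: concentration for 50% inhibition of growth.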 Activity calls are given as the source filed them. No stated cut-off is given here; in the data, active = GI50 up to about 1.1 µM and inactive = higher.

We go through five compounds from ChEMBL document CHEMBL1201862, “PubChem BioAssay data set” (2004).

As to `O=C1CN=C(C[N+](=O)[O-])c2ccccc21`, the GI50 (in general, the concentration that inhibits growth by half) is > 100 µM (inactive) in the experiment on 786-0; > 100 µM (inactive) in the experiment on A498; > 100 µM (inactive) in the experiment on COLO 205; > 100 µM (inactive) in the experiment on HCT-116; above 100 µM in the experiment on HCT-15; > 100 µM (inactive) with HL-60. For the same compound, the GI50 with HT-29, with IGROV-1, in the experiment with KM12, in the experiment on NCI-H460, with NCI-H522 and in the experiment with SF-268 was > 100 µM (inactive) in each case. Also, the GI50 in the experiment with SF-295, with SK-MEL-2, in the experiment with SK-OV-3 and with SN12C was > 100 µM (inactive) in each case.

In the case of `COc1cc(C/C=C/c2ccccc2)c(OC)cc1O` [VIOLASTYRENE], the GI50 was 13.8 µM (inactive) with 786-0; 80.4 µM (inactive) in the experiment on A498; 17.1 µM (inactive) with CCRF-CEM; 22.3 µM (inactive) with COLO 205; 17.3 µM (inactive) in the experiment with HCT-116; 17.9 µM in the experiment on HCT-15. Besides, the GI50 with HL-60 was 23.6 µM (inactive); in the experiment on HT-29, 20.9 µM (inactive); in the experiment with IGROV-1, 18.3 µM (inactive); in the experiment with KM12, 17 µM (inactive); with LOX IMVI, 17.7 µM (inactive); with NCI-H460, 20.3 µM (inactive). Moreover, the GI50 was 20.9 µM (inactive) with NCI-H522; 25.9 µM (inactive) in the experiment on SF-268; 23.2 µM (inactive) in the experiment on SK-MEL-2; 19.1 µM (inactive) in the experiment with SN12C; 16.8 µM (inactive) in the experiment on UACC-62.

Turning to `N#CC(C(=O)O)C(c1c(Cl)cccc1Cl)C(C#N)C(=O)O` (stereo not given), the GI50 was > 100 µM (inactive) with 786-0; > 100 µM (inactive) in the experiment on A498; > 100 µM (inactive) in the experiment with COLO 205; > 100 µM (inactive) in the experiment with HCT-116; above 100 µM with HCT-15; > 100 µM (inactive) with HL-60. The GI50 in the experiment on HT-29, in the experiment on IGROV-1, in the experiment on KM12, in the experiment with LOX IMVI, in the experiment on NCI-H460 and in the experiment on NCI-H522 was > 100 µM (inactive) each time. The GI50 in the experiment on SF-268, in the experiment on SF-295, in the experiment on SK-MEL-2, in the experiment with SK-OV-3, in the experiment on SN12C and in the experiment on UACC-62 was > 100 µM (inactive) throughout.

Take `CC(C)=CC(=O)N1CCN(C(=O)C=C(C)C)CC1`: the GI50 with 786-0 was > 100 µM (inactive); in the experiment on A498 it was > 100 µM (inactive); in the experiment with CCRF-CEM, > 100 µM (inactive); in the experiment on HCT-116, > 100 µM (inactive); in the experiment with HCT-15, above 100 µM; with HL-60, > 100 µM (inactive). Further, the GI50 with HT-29, in the experiment on IGROV-1, in the experiment with KM12, in the experiment on LOX IMVI, with NCI-H460 and with NCI-H522 was > 100 µM (inactive) throughout. Besides, the GI50 in the experiment with SF-268, in the experiment on SF-295, with SK-OV-3, with SN12C and in the experiment on UACC-62 was > 100 µM (inactive) each time.

With `CCOP(C)(=O)C(Cc1c[nH]c2ccccc12)C(=O)O` (stereo not given), the GI50 is > 100 µM (inactive) in the experiment on 786-0; > 100 µM (inactive) in the experiment on A498; > 100 µM (inactive) with CCRF-CEM; > 100 µM (inactive) with COLO 205; > 100 µM (inactive) in the experiment with HCT-116; above 100 µM with HCT-15. Also, the GI50 in the experiment with HL-60, with HT-29, in the experiment with IGROV-1, with KM12, with NCI-H522 and with SF-268 was > 100 µM (inactive) in each case. For the same compound, the GI50 in the experiment with SF-295, with SK-MEL-2, with SK-OV-3, with SN12C and in the experiment on UACC-62 was > 100 µM (inactive) throughout.
